{
  "source": "the supplement of paper PMC10307832",
  "experiment_in_all_cases": "relative viability (nuclei count vs DMSO), 5 days (fraction); higher = more cells survive",
  "key": {"BEN": {"test_system": "BEN", "how_it_was_run": "(§1)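 Nuclei were stained with Hoechst during a one-step fixation (final 0.05% Triton X-100, 1% formaldehyde, 1 ug/ml Hoechst) carried out 5 days after dosing, then counted on 4× images. The cells, lung cancer lines in 1536-well plates, had been dosed by pin tool the day after seeding with one drug alone or a fixed anchor-drug dose plus five library-drug doses (not always all listed) in √10 steps. Relative viability is the nuclei count in treated wells divided by that in vehicle wells, and each value is the median of duplicate plates.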"}, "EKVX": {"test_system": "EKVX", "how_it_was_run": "as §1"}, "HCC-827": {"test_system": "HCC-827", "how_it_was_run": "as §1"}, "HOP-62": {"test_system": "HOP-62", "how_it_was_run": "as §1"}, "LK-2": {"test_system": "LK-2", "how_it_was_run": "as §1"}, "LOU-NH91": {"test_system": "LOU-NH91", "how_it_was_run": "as §1"}, "LXF-289": {"test_system": "LXF-289", "how_it_was_run": "as §1"}, "NCI-H1355": {"test_system": "NCI-H1355", "how_it_was_run": "as §1"}, "NCI-H1437": {"test_system": "NCI-H1437", "how_it_was_run": "as §1"}, "NCI-H1666": {"test_system": "NCI-H1666", "how_it_was_run": "as §1"}, "NCI-H1944": {"test_system": "NCI-H1944", "how_it_was_run": "as §1"}, "NCI-H1993": {"test_system": "NCI-H1993", "how_it_was_run": "as §1"}, "NCI-H2126": {"test_system": "NCI-H2126", "how_it_was_run": "as §1"}, "NCI-H2170": {"test_system": "NCI-H2170", "how_it_was_run": "as §1"}, "NCI-H647": {"test_system": "NCI-H647", "how_it_was_run": "as §1"}, "NCI-H661": {"test_system": "NCI-H661", "how_it_was_run": "as §1"}, "NCI-H727": {"test_system": "NCI-H727", "how_it_was_run": "as §1"}, "PC-14": {"test_system": "PC-14", "how_it_was_run": "as §1"}, "RERF-LC-KJ": {"test_system": "RERF-LC-KJ", "how_it_was_run": "as §1"}, "SK-MES-1": {"test_system": "SK-MES-1", "how_it_was_run": "as §1"}},
  "data": [
    {"smiles": "Nc1cccc2c1CN(C1CCC(=O)NC1=O)C2=O", "note": "(stereo not drawn) [Lenalidomide] + CS(=O)(=O)CCNCc1ccc(-c2ccc3ncnc(Nc4ccc(OCc5cccc(F)c5)c(Cl)c4)c3c2)o1 [Lapatinib] (partner 2 µM)", "values": [
      {"measurement": "relative viability", "setting": "BEN; first compound 0.253 µM", "value": 0.898},
      {"measurement": "relative viability", "setting": "BEN; first compound 0.8 µM", "value": 0.587},
      {"measurement": "relative viability", "setting": "BEN; first compound 2.53 µM", "value": 0.918},
      {"measurement": "relative viability", "setting": "BEN; first compound 8 µM", "value": 0.489},
      {"measurement": "relative viability", "setting": "EKVX; first compound 0.253 µM", "value": 0.208},
      {"measurement": "relative viability", "setting": "EKVX; first compound 0.8 µM", "value": 0.173},
      {"measurement": "relative viability", "setting": "EKVX; first compound 2.53 µM", "value": 0.189},
      {"measurement": "relative viability", "setting": "EKVX; first compound 8 µM", "value": 0.157},
      {"measurement": "relative viability", "setting": "HCC-827; first compound 0.253 µM", "value": 0.189},
      {"measurement": "relative viability", "setting": "HCC-827; first compound 0.8 µM", "value": 0.202},
      {"measurement": "relative viability", "setting": "HCC-827; first compound 2.53 µM", "value": 0.151},
      {"measurement": "relative viability", "setting": "HCC-827; first compound 8 µM", "value": 0.185},
      {"measurement": "relative viability", "setting": "HOP-62; first compound 0.253 µM", "value": 1},
      {"measurement": "relative viability", "setting": "HOP-62; first compound 0.8 µM", "value": 0.578},
      {"measurement": "relative viability", "setting": "HOP-62; first compound 2.53 µM", "value": 1.26},
      {"measurement": "relative viability", "setting": "HOP-62; first compound 8 µM", "value": 0.924},
      {"measurement": "relative viability", "setting": "LK-2; first compound 0.253 µM", "value": 0.884},
      {"measurement": "relative viability", "setting": "LK-2; first compound 2.53 µM", "value": 0.864},
      {"measurement": "relative viability", "setting": "LK-2; first compound 8 µM", "value": 0.709},
      {"measurement": "relative viability", "setting": "LOU-NH91; first compound 0.253 µM", "value": 0.771},
      {"measurement": "relative viability", "setting": "LOU-NH91; first compound 0.8 µM", "value": 0.675},
      {"measurement": "relative viability", "setting": "LOU-NH91; first compound 2.53 µM", "value": 0.758},
      {"measurement": "relative viability", "setting": "LOU-NH91; first compound 8 µM", "value": 0.579},
      {"measurement": "relative viability", "setting": "LXF-289; first compound 0.253 µM", "value": 0.928},
      {"measurement": "relative viability", "setting": "LXF-289; first compound 0.8 µM", "value": 0.882},
      {"measurement": "relative viability", "setting": "LXF-289; first compound 2.53 µM", "value": 0.991},
      {"measurement": "relative viability", "setting": "LXF-289; first compound 8 µM", "value": 0.957},
      {"measurement": "relative viability", "setting": "NCI-H1355; first compound 0.253 µM", "value": 1},
      {"measurement": "relative viability", "setting": "NCI-H1355; first compound 0.8 µM", "value": 0.623},
      {"measurement": "relative viability", "setting": "NCI-H1355; first compound 2.53 µM", "value": 0.963},
      {"measurement": "relative viability", "setting": "NCI-H1355; first compound 8 µM", "value": 0.606},
      {"measurement": "relative viability", "setting": "NCI-H1437; first compound 0.253 µM", "value": 0.692},
      {"measurement": "relative viability", "setting": "NCI-H1437; first compound 0.8 µM", "value": 0.758},
      {"measurement": "relative viability", "setting": "NCI-H1437; first compound 2.53 µM", "value": 1.11},
      {"measurement": "relative viability", "setting": "NCI-H1437; first compound 8 µM", "value": 0.914},
      {"measurement": "relative viability", "setting": "NCI-H1666; first compound 0.253 µM", "value": 0.788},
      {"measurement": "relative viability", "setting": "NCI-H1666; first compound 0.8 µM", "value": 0.295},
      {"measurement": "relative viability", "setting": "NCI-H1666; first compound 2.53 µM", "value": 0.847},
      {"measurement": "relative viability", "setting": "NCI-H1666; first compound 8 µM", "value": 0.513},
      {"measurement": "relative viability", "setting": "NCI-H1944; first compound 0.253 µM", "value": 0.932},
      {"measurement": "relative viability", "setting": "NCI-H1944; first compound 0.8 µM", "value": 0.59},
      {"measurement": "relative viability", "setting": "NCI-H1944; first compound 2.53 µM", "value": 0.754},
      {"measurement": "relative viability", "setting": "NCI-H1944; first compound 8 µM", "value": 0.602},
      {"measurement": "relative viability", "setting": "NCI-H1993; first compound 0.253 µM", "value": 0.894},
      {"measurement": "relative viability", "setting": "NCI-H1993; first compound 0.8 µM", "value": 0.831},
      {"measurement": "relative viability", "setting": "NCI-H1993; first compound 2.53 µM", "value": 0.821},
      {"measurement": "relative viability", "setting": "NCI-H1993; first compound 8 µM", "value": 0.722},
      {"measurement": "relative viability", "setting": "NCI-H2126; first compound 0.253 µM", "value": 0.743},
      {"measurement": "relative viability", "setting": "NCI-H2126; first compound 0.8 µM", "value": 0.537},
      {"measurement": "relative viability", "setting": "NCI-H2126; first compound 2.53 µM", "value": 0.733},
      {"measurement": "relative viability", "setting": "NCI-H2126; first compound 8 µM", "value": 0.584},
      {"measurement": "relative viability", "setting": "NCI-H2170; first compound 0.253 µM", "value": 0.26},
      {"measurement": "relative viability", "setting": "NCI-H2170; first compound 0.8 µM", "value": 0.293},
      {"measurement": "relative viability", "setting": "NCI-H2170; first compound 2.53 µM", "value": 0.296},
      {"measurement": "relative viability", "setting": "NCI-H2170; first compound 8 µM", "value": 0.247},
      {"measurement": "relative viability", "setting": "NCI-H647; first compound 0.253 µM", "value": 0.995},
      {"measurement": "relative viability", "setting": "NCI-H647; first compound 0.8 µM", "value": 0.981},
      {"measurement": "relative viability", "setting": "NCI-H647; first compound 2.53 µM", "value": 1.46},
      {"measurement": "relative viability", "setting": "NCI-H647; first compound 8 µM", "value": 0.88},
      {"measurement": "relative viability", "setting": "NCI-H661; first compound 0.253 µM", "value": 0.428},
      {"measurement": "relative viability", "setting": "NCI-H661; first compound 0.8 µM", "value": 0.501},
      {"measurement": "relative viability", "setting": "NCI-H661; first compound 2.53 µM", "value": 0.479},
      {"measurement": "relative viability", "setting": "NCI-H661; first compound 8 µM", "value": 0.495},
      {"measurement": "relative viability", "setting": "NCI-H727; first compound 0.253 µM", "value": 0.685},
      {"measurement": "relative viability", "setting": "NCI-H727; first compound 2.53 µM", "value": 1},
      {"measurement": "relative viability", "setting": "NCI-H727; first compound 8 µM", "value": 0.781},
      {"measurement": "relative viability", "setting": "PC-14; first compound 0.253 µM", "value": 0.294},
      {"measurement": "relative viability", "setting": "PC-14; first compound 0.8 µM", "value": 0.32},
      {"measurement": "relative viability", "setting": "PC-14; first compound 2.53 µM", "value": 0.4},
      {"measurement": "relative viability", "setting": "PC-14; first compound 8 µM", "value": 0.302},
      {"measurement": "relative viability", "setting": "RERF-LC-KJ; first compound 0.253 µM", "value": 0.86},
      {"measurement": "relative viability", "setting": "RERF-LC-KJ; first compound 0.8 µM", "value": 0.778},
      {"measurement": "relative viability", "setting": "RERF-LC-KJ; first compound 2.53 µM", "value": 0.904},
      {"measurement": "relative viability", "setting": "RERF-LC-KJ; first compound 8 µM", "value": 0.757},
      {"measurement": "relative viability", "setting": "SK-MES-1; first compound 0.253 µM", "value": 0.416},
      {"measurement": "relative viability", "setting": "SK-MES-1; first compound 0.8 µM", "value": 0.397},
      {"measurement": "relative viability", "setting": "SK-MES-1; first compound 2.53 µM", "value": 0.536},
      {"measurement": "relative viability", "setting": "SK-MES-1; first compound 8 µM", "value": 0.391}
    ]}
  ]
}
